Measurements published in ChEMBL document CHEMBL1201862, “PubChem BioAssay data set” (2004).
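Five concentrations, 48 hours, 96-well plates. GI50 is the concentration that inhibits growth by half.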 Calls of active or inactive are those of the source. Rule as the data show it: active = GI50 up to about 1.1 µM and inactive = higher.

Columns and labels:
Assay in all cases: growth of human tumour cells (NCI), 48 h
786-0 = test system: 786-0
A498 = test system: A498
A549 = test system: A549
ACHN = test system: ACHN
BT-549 = test system: BT-549
CAKI-1 = test system: CAKI-1
COLO 205 = test system: COLO 205
DU-145 = test system: DU-145
EKVX = test system: EKVX
HCC 2998 = test system: HCC 2998
HCT-116 = test system: HCT-116
HCT-15 = test system: HCT-15
HOP-62 = test system: HOP-62
HOP-92 = test system: HOP-92
HT-29 = test system: HT-29
Hs-578T = test system: Hs-578T
IGROV-1 = test system: IGROV-1
K562 = test system: K562
KM12 = test system: KM12
M14 = test system: M14
MCF7 = test system: MCF7
MDA-MB-435 = test system: MDA-MB-435
MDA-N = test system: MDA-N
MOLT-4 = test system: MOLT-4
Malme-3M = test system: Malme-3M
NCI-H226 = test system: NCI-H226
NCI-H23 = test system: NCI-H23
NCI-H460 = test system: NCI-H460
NCI-H522 = test system: NCI-H522
NCI/ADR-RES = test system: NCI/ADR-RES
OVCAR-3 = test system: OVCAR-3
OVCAR-4 = test system: OVCAR-4
OVCAR-5 = test system: OVCAR-5
OVCAR-8 = test system: OVCAR-8
PC-3 = test system: PC-3
RPMI-8226 = test system: RPMI-8226
RXF 393 = test system: RXF 393
SF-268 = test system: SF-268
SF-295 = test system: SF-295
SF-539 = test system: SF-539
SK-MEL-28 = test system: SK-MEL-28
SK-MEL-2 = test system: SK-MEL-2
SK-MEL-5 = test system: SK-MEL-5
SK-OV-3 = test system: SK-OV-3
SN12C = test system: SN12C
SNB-19 = test system: SNB-19
SNB-75 = test system: SNB-75
SR = test system: SR
SW-620 = test system: SW-620
T47D = test system: T47D
TK-10 = test system: TK-10
U-251 = test system: U-251
UACC-257 = test system: UACC-257
UACC-62 = test system: UACC-62
UO-31 = test system: UO-31
HL-60 = test system: HL-60
LOX IMVI = test system: LOX IMVI
MDA-MB-231 = test system: MDA-MB-231
CCRF-CEM = test system: CCRF-CEM

Measured: GI50

CCOP(=O)(OCC)c1ccc(=O)[nH]c1-c1cccs1
> 100 µM: HCT-15
inactive: 786-0 > 100 µM | A498 > 100 µM | A549 > 100 µM | ACHN > 100 µM | BT-549 > 100 µM | CAKI-1 > 100 µM | COLO 205 > 100 µM | DU-145 > 100 µM | EKVX > 100 µM | HCC 2998 > 100 µM | HCT-116 > 100 µM | HOP-62 > 100 µM | HOP-92 > 100 µM | HT-29 > 100 µM | Hs-578T > 100 µM | IGROV-1 > 100 µM | K562 > 100 µM | KM12 > 100 µM | M14 > 100 µM | MCF7 > 100 µM | MDA-MB-435 > 100 µM | MDA-N > 100 µM | MOLT-4 > 100 µM | Malme-3M > 100 µM | NCI-H226 > 100 µM | NCI-H23 > 100 µM | NCI-H460 > 100 µM | NCI-H522 > 100 µM | NCI/ADR-RES > 100 µM | OVCAR-3 > 100 µM | OVCAR-4 > 100 µM | OVCAR-5 > 100 µM | OVCAR-8 > 100 µM | PC-3 > 100 µM | RPMI-8226 > 100 µM | RXF 393 > 100 µM | SF-268 > 100 µM | SF-295 > 100 µM | SF-539 > 100 µM | SK-MEL-28 > 100 µM | SK-MEL-2 > 100 µM | SK-MEL-5 > 100 µM | SK-OV-3 > 100 µM | SN12C > 100 µM | SNB-19 > 100 µM | SNB-75 > 100 µM | SR > 100 µM | SW-620 > 100 µM | T47D > 100 µM | TK-10 > 100 µM | U-251 > 100 µM | UACC-257 > 100 µM | UACC-62 > 100 µM | UO-31 > 100 µM

C=C1CN2CC(=C)CN(C1)CS(=O)(=O)N1CC(=C)CN(CC(=C)C1)S(=O)(=O)N1CC(=C)CN(CC(=C)C1)S(=O)(=O)C2
inactive: 786-0 18.7 µM | A498 46.5 µM | A549 50.8 µM | ACHN 47.1 µM | BT-549 78.5 µM | CAKI-1 > 100 µM | COLO 205 34 µM | DU-145 38.3 µM | EKVX 39.1 µM | HCC 2998 17.7 µM | HCT-116 51.3 µM | HL-60 35 µM | HOP-62 20.6 µM | HOP-92 31.3 µM | HT-29 > 100 µM | Hs-578T 25.4 µM | IGROV-1 59.8 µM | K562 56.5 µM | KM12 40.4 µM | LOX IMVI > 100 µM | M14 37.6 µM | MCF7 50.1 µM | MDA-MB-231 24.2 µM | MDA-MB-435 43.9 µM | MDA-N 52.5 µM | MOLT-4 67.1 µM | Malme-3M 23.3 µM | NCI-H226 27.7 µM | NCI-H23 78.7 µM | NCI-H460 > 100 µM | NCI-H522 32.4 µM | NCI/ADR-RES > 100 µM | OVCAR-3 > 100 µM | OVCAR-4 34.3 µM | OVCAR-5 56.8 µM | OVCAR-8 40 µM | PC-3 17.7 µM | RPMI-8226 39.4 µM | RXF 393 19.5 µM | SF-268 25.6 µM | SF-295 31.9 µM | SF-539 15.6 µM | SK-MEL-28 20.3 µM | SK-MEL-2 38.4 µM | SK-MEL-5 19.4 µM | SN12C 43.4 µM | SNB-19 40.7 µM | SR > 100 µM | SW-620 71.8 µM | TK-10 22.1 µM | U-251 32.7 µM | UACC-257 23.6 µM | UACC-62 93.3 µM | UO-31 42 µM
> 100 µM: HCT-15

Cc1ccc(NC(Nc2ccc(C)cc2C)=C(C(Cl)=C(Cl)Cl)[N+](=O)[O-])c(C)c1
14.9 µM: HCT-15
inactive: 786-0 16.1 µM | A498 21.3 µM | A549 12.6 µM | ACHN 15.2 µM | BT-549 14.2 µM | CAKI-1 20.6 µM | CCRF-CEM 3.35 µM | COLO 205 17.5 µM | DU-145 14.7 µM | EKVX 15.1 µM | HCC 2998 18 µM | HCT-116 13.7 µM | HL-60 4.12 µM | HOP-62 16.9 µM | HOP-92 12.4 µM | HT-29 17.5 µM | Hs-578T 22.8 µM | IGROV-1 14.1 µM | K562 9.53 µM | KM12 15.2 µM | LOX IMVI 5.83 µM | M14 5.36 µM | MCF7 38.7 µM | MDA-MB-231 15.5 µM | MDA-MB-435 4.89 µM | MOLT-4 10.7 µM | Malme-3M 16.9 µM | NCI-H226 14.6 µM | NCI-H23 6.22 µM | NCI-H460 13.9 µM | NCI-H522 11.1 µM | NCI/ADR-RES 7.21 µM | OVCAR-3 15.4 µM | OVCAR-4 15.7 µM | OVCAR-8 16.2 µM | PC-3 12.4 µM | RPMI-8226 19.2 µM | RXF 393 15.2 µM | SF-268 17.3 µM | SF-539 21.3 µM | SK-MEL-28 19.9 µM | SK-MEL-5 4.63 µM | SK-OV-3 20 µM | SN12C 14.7 µM | SNB-19 16.2 µM | SNB-75 9.35 µM | SR 2.9 µM | SW-620 16.8 µM | T47D 10.5 µM | TK-10 16.9 µM | UACC-257 15.9 µM | UACC-62 14.2 µM | UO-31 13.7 µM
